Source: the NIST ThermoML archive (doi:10.1016/j.jct.2012.06.031)
± gives the expanded uncertainty stated by the source.

Experiment: xn = mol fraction of the nth substance listed
Settings: 101 kPa, Liquid; for viscosity: Concentric cylinders viscometry; for mass density: Vibrating tube method

c1ccncc1 [pyridine] + OCC(O)CO
viscosity (308.15 K, x1 = 0.1): 275.49 ± 6.5 mPa·s
viscosity (308.15 K, x1 = 0.2001): 164.23 ± 2.7 mPa·s
viscosity (308.15 K, x1 = 0.3001): 92.29 ± 0.84 mPa·s
viscosity (308.15 K, x1 = 0.4): 48.72 ± 0.23 mPa·s
viscosity (308.15 K, x1 = 0.4998): 24.45 ± 0.11 mPa·s
viscosity (308.15 K, x1 = 0.6001): 10.87 ± 0.05 mPa·s
viscosity (308.15 K, x1 = 0.6999): 4.532 ± 0.022 mPa·s
viscosity (308.15 K, x1 = 0.8001): 2.441 ± 0.013 mPa·s
viscosity (308.15 K, x1 = 0.8999): 1.316 ± 0.0097 mPa·s
viscosity (308.15 K, x1 = 1): 0.7837 ± 0.0084 mPa·s
mass density (308.15 K, x1 = 0.1): 1224.12 ± 0.2 kg/m3
mass density (308.15 K, x1 = 0.2001): 1195.32 ± 0.19 kg/m3
mass density (308.15 K, x1 = 0.3001): 1167.95 ± 0.17 kg/m3
mass density (308.15 K, x1 = 0.4): 1141.6 ± 0.16 kg/m3
mass density (308.15 K, x1 = 0.4998): 1114.07 ± 0.15 kg/m3
mass density (308.15 K, x1 = 0.6001): 1086.27 ± 0.14 kg/m3
mass density (308.15 K, x1 = 0.6999): 1057.66 ± 0.14 kg/m3
mass density (308.15 K, x1 = 0.8001): 1028.43 ± 0.13 kg/m3
mass density (308.15 K, x1 = 0.8999): 998.628 ± 0.13 kg/m3
mass density (308.15 K, x1 = 1): 967.913 ± 0.12 kg/m3
viscosity (313.15 K, x1 = 0.1): 192.54 ± 3.6 mPa·s
viscosity (313.15 K, x1 = 0.2001): 116.47 ± 1.4 mPa·s
viscosity (313.15 K, x1 = 0.3001): 66.86 ± 0.35 mPa·s
viscosity (313.15 K, x1 = 0.4): 36.35 ± 0.17 mPa·s
viscosity (313.15 K, x1 = 0.4998): 18.9 ± 0.085 mPa·s
viscosity (313.15 K, x1 = 0.6001): 8.841 ± 0.04 mPa·s
viscosity (313.15 K, x1 = 0.6999): 3.95 ± 0.019 mPa·s
viscosity (313.15 K, x1 = 0.8001): 2.172 ± 0.012 mPa·s
viscosity (313.15 K, x1 = 0.8999): 1.209 ± 0.0094 mPa·s
viscosity (313.15 K, x1 = 1): 0.7354 ± 0.0083 mPa·s
mass density (313.15 K, x1 = 0.1): 1220.77 ± 0.2 kg/m3
mass density (313.15 K, x1 = 0.2001): 1191.92 ± 0.19 kg/m3
mass density (313.15 K, x1 = 0.3001): 1164.44 ± 0.17 kg/m3
mass density (313.15 K, x1 = 0.4): 1137.67 ± 0.16 kg/m3
mass density (313.15 K, x1 = 0.4998): 1109.95 ± 0.15 kg/m3
mass density (313.15 K, x1 = 0.6001): 1081.93 ± 0.14 kg/m3
mass density (313.15 K, x1 = 0.6999): 1053.14 ± 0.14 kg/m3
mass density (313.15 K, x1 = 0.8001): 1023.73 ± 0.13 kg/m3
mass density (313.15 K, x1 = 0.8999): 993.746 ± 0.13 kg/m3
mass density (313.15 K, x1 = 1): 962.849 ± 0.12 kg/m3
viscosity (318.15 K, x1 = 0.1): 137.7 ± 2 mPa·s
viscosity (318.15 K, x1 = 0.2001): 84.41 ± 0.67 mPa·s
viscosity (318.15 K, x1 = 0.3001): 49.31 ± 0.23 mPa·s
viscosity (318.15 K, x1 = 0.4): 27.66 ± 0.12 mPa·s
viscosity (318.15 K, x1 = 0.4998): 14.88 ± 0.066 mPa·s
viscosity (318.15 K, x1 = 0.6001): 7.298 ± 0.033 mPa·s
viscosity (318.15 K, x1 = 0.6999): 3.463 ± 0.017 mPa·s
viscosity (318.15 K, x1 = 0.8001): 1.944 ± 0.011 mPa·s
viscosity (318.15 K, x1 = 0.8999): 1.114 ± 0.0092 mPa·s
viscosity (318.15 K, x1 = 1): 0.6912 ± 0.0082 mPa·s
mass density (318.15 K, x1 = 0.1): 1217.48 ± 0.2 kg/m3
mass density (318.15 K, x1 = 0.2001): 1188.63 ± 0.19 kg/m3
mass density (318.15 K, x1 = 0.3001): 1160.93 ± 0.17 kg/m3
mass density (318.15 K, x1 = 0.4): 1133.7 ± 0.16 kg/m3
mass density (318.15 K, x1 = 0.4998): 1105.79 ± 0.15 kg/m3
mass density (318.15 K, x1 = 0.6001): 1077.57 ± 0.14 kg/m3
mass density (318.15 K, x1 = 0.6999): 1048.59 ± 0.14 kg/m3
mass density (318.15 K, x1 = 0.8001): 1019 ± 0.13 kg/m3
mass density (318.15 K, x1 = 0.8999): 988.846 ± 0.13 kg/m3
mass density (318.15 K, x1 = 1): 957.769 ± 0.12 kg/m3
viscosity (323.15 K, x1 = 0.1): 101.38 ± 1 mPa·s
viscosity (323.15 K, x1 = 0.2001): 63.12 ± 0.29 mPa·s
viscosity (323.15 K, x1 = 0.3001): 38.06 ± 0.17 mPa·s
viscosity (323.15 K, x1 = 0.4): 21.58 ± 0.091 mPa·s
viscosity (323.15 K, x1 = 0.4998): 12.04 ± 0.05 mPa·s
viscosity (323.15 K, x1 = 0.6001): 6.153 ± 0.027 mPa·s
viscosity (323.15 K, x1 = 0.6999): 3.06 ± 0.015 mPa·s
viscosity (323.15 K, x1 = 0.8001): 1.769 ± 0.011 mPa·s
viscosity (323.15 K, x1 = 0.8999): 1.038 ± 0.009 mPa·s
viscosity (323.15 K, x1 = 1): 0.6507 ± 0.0081 mPa·s
mass density (323.15 K, x1 = 0.1): 1214.26 ± 0.2 kg/m3
mass density (323.15 K, x1 = 0.2001): 1185.34 ± 0.18 kg/m3
mass density (323.15 K, x1 = 0.3001): 1157.38 ± 0.17 kg/m3
mass density (323.15 K, x1 = 0.4): 1129.71 ± 0.16 kg/m3
mass density (323.15 K, x1 = 0.4998): 1101.59 ± 0.15 kg/m3
mass density (323.15 K, x1 = 0.6001): 1073.01 ± 0.14 kg/m3
mass density (323.15 K, x1 = 0.6999): 1044.02 ± 0.14 kg/m3
mass density (323.15 K, x1 = 0.8001): 1014.26 ± 0.13 kg/m3
mass density (323.15 K, x1 = 0.8999): 983.927 ± 0.13 kg/m3
mass density (323.15 K, x1 = 1): 952.673 ± 0.12 kg/m3
